Assay [1] concerns human peripheral blood mononuclear cell. Kind of assay: Activation of immune cells, human PBMC cytokine/chemokine production (Test 3). In kind it is cell-based. The conditions noted are these: 200 nmol/L, one day, PBMCs from two donors, compared with only DMSO. Here is the method:
Cryopreserved peripheral blood mononuclear cells (PBMCs) of adult (C.T.L) were reconstituted, suspended in a culture medium which comprises AIM V medium (Life Technologies) supplemented with 10% human serum (biowest) and 1% MEM Non-Essential Amino Acids Solution (100×) (Life Technologies), and seeded on a U-bottom 96 well plate at 4×10^5 cells/well. The compound of the present invention was added in the presence of 0.1% (v/v) DMSO to the wells at a final concentration of 200 nmol/L. The plate was incubated at 37° C. under an atmosphere of 5% CO2. One day after the incubation, the culture supernatant was collected. The concentration of cytokine and chemokine (GM-CSF, IFNα2, IFNγ, IL-12p40, IL-1p, IL-6, IP-10, and TNFα) which were included in each culture supernatant was measured with Milliplex Human Cytokine/Chemokine Magnetic Bead Panel kit (Millipore) and Luminex system (Luminex) in accordance with the manufacturer's protocol.
The results of the test wherein PBMCs derived from two different donors were used were shown in FIG. 1-A to FIG. 1-I. The white bar indicates the mean number of the concentration of cytokine and chemokine in the culture supernatant from three wells to which only DMSO was added, and the black bar indicates the mean number of the concentration of cytokine and chemokine in the culture supernatant from three wells to which the present compound was added. […]

For assay [2], the system named is HLA-A*02:01 transgenic mouse. Kind of assay: Induction of antigen-specific effector memory CTL, flow cytometry (Test 14). The conditions noted are these: twice; for induction of antigen peptide-specific effector memory CTL (CD8+ tetramer+ CD127+ CD62L-): 325 ng per body in vaccine b compared with the vaccine without compound. In kind it is in vivo. Here is the method:
The activity of a vaccine comprising the compounds prepared in Examples 2 and 3 for inducing effector memory CTL was evaluated through the cell surface antigen expression analysis of CTL by flow cytometry.
Specifically, vaccine a prepared like Test 6 was injected to a HLA-A*02:01 transgenic mouse intradermally at the tail base area in an amount for administering 300 μg of Compound of formula 4 per body and 225 μg of Peptide SEQ ID No. 3 per body. The administrations were done twice, which had one week interval. Or, a vaccine prepared by adding the compound prepared in Example 3 to vaccine a was injected to the mouse intradermally at the tail base area in an amount for administering 300 μg of Compound of formula 4 per body, 225 μg of Peptide SEQ ID No. 3 per body, and 32.5 ng of the compound prepared in Example 3 per body. The administrations were done twice, which had one week interval. Or, vaccine b prepared like Test 8 was injected to the mouse intradermally at the tail base area in an amount for administering 300 μg of Compound of formula 4 per body and 225 μg of Peptide SEQ ID No. 3 per body. Or a vaccine prepared by adding the compound prepared in Example 3 to vaccine b was injected to the mouse intradermally at the tail base area in an amount for administering 300 μg of Compound of formula 4 per body, 225 μg of Peptide SEQ ID No. 3 per body, and 325 ng of the compound prepared in Example 3 per body. Or a vaccine prepared by adding the compound prepared in Example 2 to vaccine b was injected to the mouse intradermally at the tail base area in an amount for administering 300 μg of Compound of formula 4 per body, 225 μg of Peptide SEQ ID No. 3 per body, and 325 ng of the compound prepared in Example 2 per body. […] 1, a PE-Cy7-labeled anti-CD127 antibody, and a PerCP-Cy5.5-labeled anti-CD62L antibody, and analyzed for peptide-specific effector memory CTLs with a flow cytometer. The ratio of CD8-positive tetramer-positive CD127-positive CD62L-negative fraction in the lymphocyte fraction was calculated as peptide-specific effector memory CTL.
Background: In flow cytometry, cells or beads pass a laser one at a time.

Assay [3] deals with HLA-A*02:01 transgenic mouse. The assay is described as follows: In vivo adjuvant activity, CTL induction with vaccine b (Montanide ISA 51 VG), IFNγ ELISPOT (Test 8). The settings on record: compound (32.5 ng or 325 ng per body) added to vaccine b versus no compound; twice, one week interval. Here is the method:
The in vivo adjuvant activity of the compounds prepared in Examples 2 and 3 was evaluated in the following procedure. To a cocktail vaccine comprising Compound of formula 4 prepared in Reference example 9 and Peptide SEQ ID No. 3 prepared in Reference example 3 with Montanide ISA51 VG (hereinafter, referred to as “vaccine b”) was added the compound prepared in Example 2 or 3 to prepare each vaccine. The vaccine was administered to a HLA-A*02:01 transgenic mouse, and the adjuvant activity of each vaccine was evaluated by the method of testing antigen-specific CTL induction.
Specifically, Compound of formula 4 and Peptide SEQ ID No. 3 were dissolved in DMSO, and then diluted with water for injection to concentrations of Compound of formula 4 of 3 mg/mL and Peptide SEQ ID No. 3 of 2.25 mg/mL. The diluted peptide solution was mixed and emulsified with an equal volume of Montanide ISA 51 VG (Seppic) to prepare vaccine b. Cocktail vaccine b was injected to mice intradermally at the tail base area in an amount for administering 300 μg of Compound of formula 4 per body and 225 μg of Peptide SEQ ID No. 3 per body. Or, in the step of preparing vaccine b, the compound prepared in Example 3 was added to the diluted peptide solution to prepare a vaccine, and the prepared vaccine was injected to mice intradermally at the tail base area in an amount for administering 300 μg of Compound of formula 4 per body, 225 μg of Peptide SEQ ID No. 3 per body, and 32.5 ng or 325 ng of the compound prepared in Example 3 per body. Or, in the step of preparing vaccine b, the compound prepared in Example 2 was added to the diluted peptide solution to prepare a vaccine, and the prepared vaccine was injected to mice intradermally at the tail base area in an amount for administering 300 μg of Compound of formula 4 per body, 225 μg of Peptide SEQ ID No. 3 per body, and 32.5 ng or 325 ng of the compound prepared in Example 2 per body. The administrations were done twice, which had one week interval. One week after the final administration, the mice were sacrificed with CO2 gas. Splenocytes were harvested from spleens removed from the mice. Like Test 6, Peptide (SEQ ID No. 1 or SEQ ID No. 5) was added to the splenocyte-containing ELISPOT plate, and the plate was incubated overnight at 37° C. under an atmosphere of 5% CO2 to re-stimulate the peptide in vitro. Then, after removal of the supernatant from the wells, stained spots on the ELISPOT plate were counted.

Structures are written as SMILES.

On to `CCCCOc1nc(N)c2[nH]c(=O)n(Cc3ccc(CN(C)CCOCCOCCOCCOCCO)cc3)c2n1` [Example 3, 6-amino-2-butoxy-9-{[4-(16-hydroxy-2-methyl-5,8,11,14-tetraoxa-2-azahexadecan-1-yl)phenyl]methyl}-7,9-dihydro-8H-purin-8-one], for which the “concentration of cytokine and chemokine (GM-CSF, IFNα2, IFNγ, IL-12p40, IL-1β, IL-6, IP-10, TNFα) in culture supernatant” value in assay [1] is recorded as “higher”. Besides, in assay [2] (32.5 ng per body in vaccine a compared with vaccine a), the “induction of peptide-specific effector memory CTL (CD8+ tetramer+ CD127+ CD62L-)” value is reported as “high frequency”. Moreover, the “induction of antigen peptide-specific effector memory CTL (CD8+ tetramer+ CD127+ CD62L-)” value in assay [2] is “high frequency”. For the same compound, in assay [3], the “CTL counts responsive to Peptide of SEQ ID No. 1” value was “more” and the “CTL counts responsive to Peptide of SEQ ID No. 5” value is “more”.

With `CCCCOc1nc(N)c2[nH]c(=O)n(Cc3ccc(CN(C)CCOCCOCCOCCOCCO)nc3)c2n1` [Example 2, 6-amino-2-butoxy-9-{[6-(16-hydroxy-2-methyl-5,8,11,14-tetraoxa-2-azahexadecan-1-yl)pyridin-3-yl]methyl}-7,9-dihydro-8H-purin-8-one-trifluoroacetate], in assay [1], the “concentration of cytokine and chemokine (GM-CSF, IFNα2, IFNγ, IL-12p40, IL-1β, IL-6, IP-10, TNFα) in culture supernatant” value is on record as “higher”. For the same compound, the “induction of antigen peptide-specific effector memory CTL (CD8+ tetramer+ CD127+ CD62L-)” value in assay [2] is “high frequency”. Moreover, in assay [3], the “CTL counts responsive to Peptide of SEQ ID No. 1” value was “more” and the “CTL counts responsive to Peptide of SEQ ID No. 5” value is given as “more”.
